In patent US20020148001A1, “Transgenic mice containing CRFR2 corticotropin-releasing factor receptor gene disruptions” (priority 2000, published 2002):
No end group written: not given here.

Legend:
[1] = test system: wild-type control mice (+/+); assay: Metrazol dose test (seizure susceptibility), wild-type control mice; format: in vivo, mouse; details: genotype +/+
Description: (§1) A metrazol administration test can be used to screen animals for varying susceptibilities to seizures or similar events. For example, a 5 mg/ml solution of metrazol can be infused through the tail vein of a mouse at a rate of, e.g., approximately 0.375 ml/min. The infusion will cause all mice to experience seizures, followed by death. Those mice that enter the seizure stage the soonest are believed to be more prone to seizures.
(§2) Phenotypic Analysis. The transgenic mice were analyzed for phenotypic changes.

[2] = test system: homozygous mutant mice (CRFR2 −/−); assay: Metrazol dose test (seizure susceptibility), CRFR2 homozygous mutant mice; format: in vivo, mouse; details: for Dose to Death / Dose to Extension (tonic extension) / Dose to T/C (tonic/clonic seizure) / Dose to Twitch: genotype −/−
Description: as §1, §2

CRHR2 −/− mice [3] = details: intravenously injected, mutant mice; cited from earlier work
CRHR2 −/− mice [4] = details: CRHR2 −/− mice following urocortin administration; recovered more rapidly than wildtype; cited from earlier work
CRHR2 −/− mice [5] = details: systemic urocortin, CRHR2 −/− mice in contrast to wildtype; cited from earlier work
CRF2 receptor = target: T1, CRF2 receptor (Homo sapiens, UniProt Q13324); details: transfected cells expressing the CRF2 receptor; cited from earlier work
T1 sequence (Q13324 1-411): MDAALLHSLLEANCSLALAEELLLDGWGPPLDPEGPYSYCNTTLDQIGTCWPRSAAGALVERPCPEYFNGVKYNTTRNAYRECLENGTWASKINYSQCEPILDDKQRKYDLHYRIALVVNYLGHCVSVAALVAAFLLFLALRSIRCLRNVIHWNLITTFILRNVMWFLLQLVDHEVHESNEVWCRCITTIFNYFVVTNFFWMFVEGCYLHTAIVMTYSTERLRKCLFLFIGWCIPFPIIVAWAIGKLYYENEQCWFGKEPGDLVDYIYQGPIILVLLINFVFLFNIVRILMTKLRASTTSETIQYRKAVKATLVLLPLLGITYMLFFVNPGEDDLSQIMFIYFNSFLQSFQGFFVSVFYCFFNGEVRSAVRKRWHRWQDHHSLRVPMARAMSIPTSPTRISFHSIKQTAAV

C1CCc2nnnn2CC1 [metrazol]
Dose to Death ([1]; F2N0): 136.65 mg/kg body weight | Dose to Extension (tonic extension) ([1]; F2N0): 113.63 mg/kg body weight | Dose to T/C (tonic/clonic seizure) ([1]; F2N0): 43.46 mg/kg body weight | Dose to Twitch ([1]; F2N0, tail vein infusion): 36.93 mg/kg body weight | Dose to Death ([1]; F2N1): 124.96 mg/kg body weight | Dose to Extension (tonic extension) ([1]; F2N1): 95.46 mg/kg body weight | Dose to T/C (tonic/clonic seizure) ([1]; F2N1): 34.36 mg/kg body weight | Dose to Twitch ([1]; F2N1): 23.71 mg/kg body weight | Dose to Death ([2]; F2N0): 127.39 mg/kg body weight | Dose to Extension (tonic extension) ([2]; F2N0): 98.20 mg/kg body weight | Dose to T/C (tonic/clonic seizure) ([2]; F2N0): 44.38 mg/kg body weight | Dose to Twitch ([2]; F2N0): 34.90 mg/kg body weight | Dose to Death ([2]; F2N1): 148.84 mg/kg body weight | Dose to Extension (tonic extension) ([2]; F2N1): 119.75 mg/kg body weight | Dose to T/C (tonic/clonic seizure) ([2]; F2N1): 37.93 mg/kg body weight | Dose to Twitch ([2]; F2N1): 24.18 mg/kg body weight | metrazol response threshold, dose to show stereotypical seizure responses ([2]; homozygotes compared to wild-types, particularly tonic extension and death): higher dose of metrazol than wild-types

urocortin (DDPPLSIDLTFHLLRTLLELARTQSQRERAEQNRIIFDSV; ends and bridges not checked; UniProt P81615 81-120, looked up)
effect on mean arterial pressure (CRHR2 −/− mice [3]): no effect | feeding (CRHR2 −/− mice [4]): initially suppressed | enhanced cardiac performance or reduced blood pressure (CRHR2 −/− mice [5]): failed to show the enhanced cardiac performance or reduced blood pressure

corticotropin-releasing hormone [CRH]
intracellular cAMP (CRF2 receptor): increase
